# Laboratory results reported in patent publication US9669047B2, “Method for producing polyphenol composition” (KAO CORPORATION, priority 2012, dated 2017).
# Key:
# [1] = Solubility of the raw polyphenols (A) and (B) in water at 25° C.; settings: for Solubility of (B) in water (25° C.): water-soluble polyphenol (B) alone; for Solubility of (A) in water (25° C.): hardly water-soluble polyphenol (A) alone
# Description: (§1) The term “hardly water-soluble polyphenol” used in the present invention refers to the one having a poor solubility in water. […] The solubility represents herein a gram number of the solute being dissolved in 1 L of the solution with a unit of [g/L].
# [2] = physchem; settings: 25 °C, water
# Description: as §1
Solubility of (B) in water (25° C.) [1],Molecule,Solubility of (A) in water (25° C.) [1] [µg/mL],other results
≥ 300 or g/L,glucosylhesperidin,,
,"c1cc2c(cc1[C@H]1OC[C@H]3[C@@H]1CO[C@@H]3c1ccc3c(c1)OCO3)OCO2 [Sesamin, sesamin]",,solubility [2]: 0.14 µg/mL
15 g/L,"O=C(O[C@@H]1Cc2c(O)cc(O)cc2O[C@@H]1c1cc(O)c(O)c(O)c1)c1cc(O)c(O)c(O)c1 [Catechin, epigallocatechin gallate]",,
,"O=c1oc2c(O)c(O)cc3c(=O)oc4c(O)c(O)cc1c4c23 [Ellagic acid, ellagic acid]",4,solubility ([1]; 25 °C): 4 µg/mL
,"COc1ccc([C@@H]2CC(=O)c3c(O)cc(O[C@@H]4O[C@H](CO[C@@H]5O[C@@H](C)[C@H](O)[C@@H](O)[C@H]5O)[C@@H](O)[C@H](O)[C@H]4O)cc3O2)cc1O [Hesperidin, hesperidin]",50,
